For data set [1], the system named is ABUTH: velvetleaf (Abutilon theophrasti). Kind of data set: Post-Emergent Test I herbicidal activity. The settings on record: Abutilon theophrasti, post-emergence, 336 h, read-out: Visual Growth Reduction (%)-14 Days after Application ABUTH; for pest or weed control at 140 g/ha: Table 3, 140 g ai/ha; for pest or weed control at 280 g/ha: Table 3, 280 g ai/ha. It is filed as in vivo. An outline of the steps: (§1)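 Post-emergence foliar application to young greenhouse plants at 187 L/ha, five rates down to 1/16× of the top rate. Percent injury is assessed visually two weeks later against untreated plants.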

Data set [2] relates to CHEAL: lambsquarters (Chenopodium album). Description: Post-Emergent Test I herbicidal activity. It is filed as in vivo. The settings on record: Chenopodium album, post-emergence, 336 h, read-out: Visual Growth Reduction (%)-14 Days after Application CHEAL; for pest or weed control at 140 g/ha: Table 3, 140 g ai/ha; for pest or weed control at 280 g/ha: Table 3, 280 g ai/ha. The method in brief: as §1

Data set [3] has as its system CYPES: yellow nutsedge (Cyperus esculentus). Description: Post-Emergent Test I herbicidal activity. Format: in vivo. The settings on record: post-emergence, 336 h, read-out: Visual Growth Reduction (%)-14 Days after Application CYPES; for pest or weed control at 140 g/ha: Table 3, 140 g ai/ha; for pest or weed control at 280 g/ha: Table 3, 280 g ai/ha. The method in brief: as §1

For data set [4], the system named is ECHCG: barnyardgrass (Echinochloa crus-galli). Description: Post-Emergent Test I herbicidal activity. Format: in vivo. The settings on record: post-emergence, 336 h, read-out: Visual Growth Reduction (%)-14 Days after Application ECHCG; for pest or weed control at 140 g/ha: Table 3, 140 g ai/ha; for pest or weed control at 280 g/ha: Table 3, 280 g ai/ha. An outline of the steps:
(§2)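 Foliar spray, 187 L/ha, track sprayer; plants at 1st–2nd true leaf, 7–21 d old. Carrier: acetone/DMSO + aqueous acetone/IPA/crop oil/Triton X-155; high rate plus ½×–1/16× dilutions. Subirrigated; visual % injury vs untreated at 14 d.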

For data set [5], the system named is EPHHL: wild poinsettia (Euphorbia heterophylla). Description: Post-Emergent Test I herbicidal activity. It is filed as in vivo. The settings on record: post-emergence, 336 h, read-out: Visual Growth Reduction (%)-14 Days after Application EPHHL; for pest or weed control at 140 g/ha: Table 3, 140 g ai/ha; for pest or weed control at 280 g/ha: Table 3, 280 g ai/ha. An outline of the steps:
as §1

For data set [6], the system named is ORYSA: rice (Oryza sativa). Kind of data set: Post-Emergent Test I herbicidal activity. Format: in vivo. The settings on record: post-emergence, 336 h, read-out: Visual Growth Reduction (%)-14 Days after Application ORYSA; for pest or weed control at 140 g/ha: Table 3, 140 g ai/ha; for pest or weed control at 280 g/ha: Table 3, 280 g ai/ha. The method in brief:
as §2

For the next data set, the system named is ZEAMX: corn (Zea mays). Kind of data set: Post-Emergent Test I herbicidal activity. Format: in vivo. The settings on record: Zea mays, post-emergence, 336 h, read-out: Visual Growth Reduction (%)-14 Days after Application ZEAMX; for pest or weed control at 140 g/ha: Table 3, 140 g ai/ha; for pest or weed control at 280 g/ha: Table 3, 280 g ai/ha. The method in brief: as §1

Drawing on US9518018B2, “3-alkoxy, thioalkyl and amino-4-amino-6-(substituted)picolinates and their use as herbicides” (Dow AgroSciences LLC, priority 2011, dated 2016), this text covers pest or weed control and melting point for nine compounds.

The structures appear in SMILES notation.

`CSc1c(C(=O)O)nc(Cl)c(F)c1N` [Compound 73] gave a melting point of 176 to 178 °C. The pest or weed control at 140 g/ha in data set [1] amounted to 10%. Further, the pest or weed control at 140 g/ha in data set [2] was 10%. Moreover, the pest or weed control at 140 g/ha in data set [3] was 0%. Moreover, in data set [4], the pest or weed control at 140 g/ha was 0%. Further, in data set [5], the pest or weed control at 140 g/ha came out at 50%. Also, the pest or weed control at 140 g/ha in data set [6] is 0%. Further, the pest or weed control at 140 g/ha in the data set with ZEAMX: corn (Zea mays) turned out to be 0%.

`COC(=O)c1nc(-c2ccc(Cl)c(N(C)C)c2F)c(F)c(N)c1OC` [Compound 43] registered a melting point of 113 to 115 °C. In data set [1], the pest or weed control at 140 g/ha worked out at 90%. Further, the pest or weed control at 140 g/ha in data set [2] stood at 100%. Moreover, in data set [3], the pest or weed control at 140 g/ha was found to be 50%. Besides, the pest or weed control at 140 g/ha in data set [4] came out at 80%. Also, the pest or weed control at 140 g/ha in data set [5] was 100%. Moreover, the pest or weed control at 140 g/ha in data set [6] turned out to be 0%. For the same compound, the pest or weed control at 140 g/ha in the data set with ZEAMX: corn (Zea mays) was 70%.

As for `COC(=O)c1nc(-c2ccc(C(F)(F)F)cc2)c(F)c(N)c1OC` [Compound 35], the melting point is 97 to 99 °C. Further, the pest or weed control at 140 g/ha in data set [1] was determined as 75%. Further, the pest or weed control at 140 g/ha in data set [2] came to 100%. Also, in data set [3], the pest or weed control at 140 g/ha stood at 100%. Further, in data set [4], the pest or weed control at 140 g/ha came to 80%. Also, the pest or weed control at 140 g/ha in data set [5] came out at 100%. In data set [6], the pest or weed control at 140 g/ha was found to be 0%. Moreover, the pest or weed control at 140 g/ha in the data set with ZEAMX: corn (Zea mays) came out at 70%.

For `COc1c(C(=O)O)nc(-c2ccc(C(F)(F)F)cc2)c(F)c1N` [Compound 50], the melting point was in the range of 135 to 137 °C. Also, the pest or weed control at 140 g/ha in data set [1] was 90%. Moreover, the pest or weed control at 140 g/ha in data set [2] amounted to 90%. Moreover, the pest or weed control at 140 g/ha in data set [3] amounted to 100%. Also, in data set [4], the pest or weed control at 140 g/ha is 70%. Further, the pest or weed control at 140 g/ha in data set [5] was determined as 100%. Moreover, in data set [6], the pest or weed control at 140 g/ha worked out at 30%. In the data set on ZEAMX: corn (Zea mays), the pest or weed control at 140 g/ha stood at 75%.

As to `COC(=O)c1nc(-c2cc(F)c(Br)cc2F)c(F)c(N)c1OC` [Compound 20], the melting point was in the range of 116 to 118 °C. Further, the pest or weed control at 70 g/ha in data set [1] (Table 3, 70 g ai/ha) came to 85%. Further, in data set [2] (Table 3, 70 g ai/ha), the pest or weed control at 70 g/ha was determined as 100%. Further, in data set [3] (Table 3, 70 g ai/ha), the pest or weed control at 70 g/ha came to 50%. Also, in data set [4] (Table 3, 70 g ai/ha), the pest or weed control at 70 g/ha was 80%. For the same compound, in data set [5] (Table 3, 70 g ai/ha), the pest or weed control at 70 g/ha is 100%. Also, the pest or weed control at 70 g/ha in data set [6] (Table 3, 70 g ai/ha) came out at 0%. Also, the pest or weed control at 70 g/ha in the data set with ZEAMX: corn (Zea mays) (Table 3, 70 g ai/ha) is 80%.

As to `COC(=O)c1nc(-c2ccc(F)cc2)c(F)c(N)c1OC` [Compound 36], the melting point was 141 to 143 °C. Moreover, the pest or weed control at 140 g/ha in data set [1] worked out at 100%. Further, in data set [2], the pest or weed control at 140 g/ha was 100%. The pest or weed control at 140 g/ha in data set [3] is 100%. Also, the pest or weed control at 140 g/ha in data set [4] was 0%. Also, in data set [5], the pest or weed control at 140 g/ha turned out to be 100%. For the same compound, in data set [6], the pest or weed control at 140 g/ha is 0%. Further, the pest or weed control at 140 g/ha with ZEAMX: corn (Zea mays) stood at 60%.

`COC(=O)c1nc(-c2ccc(C(F)(F)F)c(F)c2F)c(F)c(N)c1OC` [Compound 38] showed a melting point of 139 to 141 °C. Moreover, the pest or weed control at 140 g/ha in data set [1] stood at 85%. Also, in data set [2], the pest or weed control at 140 g/ha turned out to be 90%. Moreover, the pest or weed control at 140 g/ha in data set [3] was 50%. For the same compound, in data set [4], the pest or weed control at 140 g/ha came to 10%. Further, the pest or weed control at 140 g/ha in data set [5] amounted to 100%. Also, in data set [6], the pest or weed control at 140 g/ha came to 0%. Moreover, the pest or weed control at 140 g/ha with ZEAMX: corn (Zea mays) is 75%.

In turn, `CCOC(=O)c1nc(-c2ccc(Cl)cc2F)cc(N)c1OCC(F)(F)F` [Compound 67, ethyl 4-amino-6-(4-chloro-2-fluorophenyl)-3-(2,2,2-trifluoro-ethoxy)picolinate] returned a melting point of 123 to 125 °C. In data set [1], the pest or weed control at 280 g/ha amounted to 25%. Besides, in data set [2], the pest or weed control at 280 g/ha amounted to 50%. In data set [3], the pest or weed control at 280 g/ha is 0%. In addition, the pest or weed control at 280 g/ha in data set [4] was 0%. Also, in data set [5], the pest or weed control at 280 g/ha is 35%. In addition, in data set [6], the pest or weed control at 280 g/ha worked out at 0%. Further, in the data set on ZEAMX: corn (Zea mays), the pest or weed control at 280 g/ha stood at 0%.

Compound `CCc1nc(C(=O)O)c(OC)c(N)c1F` [Compound 58] yielded a melting point of 148.5 to 150.5 °C. The pest or weed control at 280 g/ha in data set [1] amounted to 60%. For the same compound, the pest or weed control at 280 g/ha in data set [2] was 80%. The pest or weed control at 280 g/ha in data set [3] was found to be 0%. In addition, in data set [4], the pest or weed control at 280 g/ha was found to be 0%. Besides, the pest or weed control at 280 g/ha in data set [5] was determined as 65%. In addition, the pest or weed control at 280 g/ha in data set [6] came to 0%. For the same compound, the pest or weed control at 280 g/ha in the data set on ZEAMX: corn (Zea mays) was 10%.

As usually defined, the melting point is the temperature, or range, at which the solid turns liquid.
